# Assay results from patent publication US7083918B2, “Bacterial small-molecule three-hybrid system” (The Trustees of Columbia University in the City of New York, priority 2002, dated 2006).
# Columns and labels:
# tolC^− strains = assay: growth and viability of tolC- strains on antibiotic; assay type: cell-based, E. coli
# Protocol: Electrocompetent cells of strain V674E were made by standard methods (35); however, the transformation efficiency of this strain is low (10^6–10^7) due to the tolC^− mutation. Using standard methods, both the pACλcI32 and the pBRαLN plasmids or appropriate derivatives were transformed into the strain. Transformants were grown on LB with 100 μg/mL ampicillin and 6 μg/mL chloramphenicol. […] In addition MacConkey plates can't be used because MacConkey media is toxic to strains bearing a tolC^− mutation.
# [1] = test system: λcI-FKBP12 and αNTD-DHFR fusion proteins (lacZ reporter gene in E. coli strain V674E); assay: liquid lacZ (ONPG) β-galactosidase assay, bacterial three-hybrid system; assay type: cell-based; conditions: for effect of unlinked ligand on the levels of transcription in the three-hybrid system: control without Mtx-SLF (FIG. 4)
# Description: The levels of small-molecule induced transcriptional activation were quantified using liquid lacZ assays. The strains here correspond exactly to those in FIG. 2 and are used in liquid ONPG assays where the levels of transcriptional activation can be quantitated based on the amount of reporter protein, b-galactosidase, which is produced. The strains are V674E bearing plasmids encoding λcI and αNTD fusion proteins: 1, λcI-Gal4, αNTD-Gal11^P; 2, λcI, αNTD; 3, λcI-FKBP12, αNTD; 4, λcI-FKBP12, αNTD-DHFR; 5, λcI, αNTD-DHFR. The strains were assayed in triplicate from three transformants and standard deviations are shown. The strains are grown in LB with 0.5 mM IPTG, 100 μg/mL ampicillin, 6 μg/mL chloramphenicol, and small molecules at the indicated concentration. […] The last two small-molecule concentrations are competition assays in which an excess of one of the ligands for the receptor proteins was used to compete out the positive signal due to the three-hybrid system.
# The strains are V674E expressing the following λcI and αNTD fusion proteins: (♦), λcI-Gal4, αNTD-Gal11^P (a direct protein-protein interaction); (▬), λcI-FKBP12, αNTD (a negative control); and (▴), λcI-FKBP12, αNTD-DHFR (the three-hybrid system). […] The standard deviation for each data point is also shown.
# For the liquid assays, the strains were incubated overnight in LB liquid media containing 100 μg/mL ampicillin, 6 μg/mL chloramphenicol, and 0.5 mM IPTG overnight. These cultures were used to innoculate 1000 fold into LB liquid media containing 100 μg/mL ampicillin, 6 μg/mL chloramphenicol, 0.5 mM IPTG, and small molecule (per concentration indicated in each experiment) and grown to a final OD600 of 0.4-0.6 in a 37° C. shaker which took about 5 hours. No tPEG is used in the liquid assays in order to get a true quantization of the transcription. Then, the protocol from Miller was followed exactly using 0.1 mL cell lysate for the assay (35).
# E. coli cells = assay: toxicity to E. coli cells in three-hybrid experiments; assay type: cell-based; conditions: at the low concentrations of Mtx-SLF required for the three-hybrid experiments; tolC^− strain
# Protocol: The next step was the construction of the E. coli strain expressing the λcI-FKBP12 and (NTD-DHFR fusion proteins and containing the lacZ reporter construct. Plasmids encoding the λcI-FKBP12 and αNTD-DHFR chimeras were prepared from vectors pACλcI32 and pBRαLN using standard molecular biology techniques (8). The same synthetic lacZ reporter, placOR2-62, as initially reported by the Hochschild lab was used. The reporter placOR2-62 is maintained in one copy in the chromosome as a prophage and encodes the lacZ gene 62 bp downstream from the λcI operator (FIG. 1) (16). Based on previous results from Kopytek and Hu showing that tolC^− and thyA^− mutations improved the viability and tolerance of E. coli to Mtx-based molecules, we expected export as well as toxicity of Mtx-SLF to be problematic in E. coli (32). Thus, we modified the original Hochschild strain KS1 to be tolC^− in order to decrease active export of our small molecule. […] We introduced the tolC^− mutation into KS1 via a P1vir transduction from strain SK037 (32). We call this test strain V674E. Transformation of the plasmids bearing the various λcI and αNTD fusion proteins into V674E yielded the final experimental strains.
# These X-gal plate results were confirmed using more quantitative liquid β-galactosidase assays. The liquid assays were carried out essentially as originally described by Miller (35). […]
# FKBP12 = FKBP12 (Homo sapiens, UniProt P62942); conditions: cited from earlier work
# Sequence of FKBP12 (P62942 whole entry): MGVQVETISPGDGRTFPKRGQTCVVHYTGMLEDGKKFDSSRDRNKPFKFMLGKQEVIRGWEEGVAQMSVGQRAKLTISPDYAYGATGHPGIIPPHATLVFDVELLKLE
smiles,measurement,setting,value
O=C(N[C@H](CO)[C@H](O)c1ccc([N+](=O)[O-])cc1)C(Cl)Cl [Chloramphenicol],levels that significantly impair growth and viability of tolC^− strains,tolC^− strains,above 8 μg/mL
"CN(Cc1cnc2nc(N)nc(N)c2n1)c1ccc(C(=O)N[C@@H](CCC(=O)O)C(=O)O)cc1 [Mtx, methotrexate]",effect of unlinked ligand on the levels of transcription in the three-hybrid system,[1],"Neither Mtx, SLF, nor a combination of the two affects the levels of transcription"
same,toxicity in E. coli (need for thyA^− mutation),E. coli cells,not sufficiently toxic
CCC(C)(C)C(=O)C(=O)N1CCCCC1C(=O)OC(CCc1ccc(OC)c(OC)c1)c1cccc(OCC(=O)O)c1 (stereo not drawn) [SLF],effect of unlinked ligand on the levels of transcription in the three-hybrid system,[1],"Neither Mtx, SLF, nor a combination of the two affects the levels of transcription"
same,affinity for FKBP12,FKBP12,nanomolar affinity
CCC(C)(C)C(=O)C(=O)N1CCCCC1C(=O)OC(CCc1ccc(OC)c(OC)c1)c1cccc(OCC(=O)OC(C)(C)C)c1 (stereo not drawn) [tert-butyl ester of SLF],levels of transcription with competitor relative to 1 μM Mtx-SLF alone,[1]; competition: 1 μM Mtx-SLF plus 10-fold excess of competitor,about half
